Patent US20250375434A1, “SMALL MOLECULES AND METHODS FOR INDUCING CARDIOMYOCYTE PROLIFERATION” (UNIVERSITY OF VIRGINIA PATENT FOUNDATION, priority 2024, published 2025)

Experiments:
[1] = tested on: hiPSC-CMs (iCell Cardiomyocytes); experiment: Live-cell proliferation assay (change in number of cells over 6 days)
Procedure: Using the same live-cell proliferation assay we developed in the previous study [13], we confirmed the 5-point concentration-response profiles (0.1-10.0 μM) in three independent manufacturing lots of iCell Cardiomyocytes (FIG. 7). Briefly, hiPSC-CMs were stained with a low, non-toxic concentration of Hoechst 33342 and the same imaging fields of view were collected at both initial (day 0) and final (day 6) timepoints. We quantified the change in the number of cells, binucleation events, and DNA content distribution using the image segmentation and analysis pipeline described in the previous study [13].
ICell Cardiomyocytes (Cellular Dynamics International) were seeded in 96-well or 384-well Corning CellBind plates at approximately 2.5×10^4 to 3.5×10^4 cells/cm^2. […] Cells were cultured for all experiments in a humidified environment at 37° C. with 5% CO2.
Pharmacology Metrics—Based on concentration-dependent responses of changes in cell number, we quantified area under the curve (AUC) as the sum of the relative changes in cell number across the five concentrations of compound. As a measure of potency, we performed cubic B-spline interpolation and then calculated the minimum concentration needed to achieve 50% of the maximum effect.

VEGFR2 (KDR) = details: 12 h treatment, compared to the DMSO negative control
Procedure: To further investigate the role of RTKs in compound-induced proliferation, we profiled the activity of 49 RTKs using a specialized array with the same protein lysates used for the RPPA.
Cells were seeded in 60 mm Corning CellBind dishes, cultured for 6 days, serum starved for 4 h, and treated with compounds for 12 h with 3 replicates. At the end of the experiment, cells were treated with 1 mM peroxyvanadate (1 mM NaVO3, 0.1 μg/mL Catalase, 0.003% H2O2) for 15 min prior to cell lysis. Cells were then rinsed with ice-cold 1×PBS and lysed on ice for 15 min with lysis buffer (50 mM Tris-HCl pH 7.5, 150 mM NaCl, 0.1 mM EDTA, 1 mM DTT, 1 mM NaVO3, 0.5% TritonX-100) containing protease inhibitor cocktail (Sigma). Cell lysates were mechanically homogenized using 28-gauge syringes, spun down, and adjusted to equivalent concentrations. The Proteome Profiler Human Phospho-RTK Array Kit (R&D Systems) was used to measure phosphorylation activity of 49 RTKs. Briefly, the arrays with printed anti-RTK antibodies were blocked for 1 hour and incubated with 38.8 μg of total protein lysate overnight at 4° C. The arrays were then washed and incubated with anti-phospho-tyrosine antibodies conjugated to HRP and detected via chemiluminescence. Array films were scanned and Image Studio software (LI-COR) was used to quantify intensities of each spot. […]

[2] = tested on: hiPSC-CMs (iCell Cardiomyocytes); experiment: DNA content / ploidy and cell cycle phase analysis after 6 days of treatment
[3] = tested on: hiPSC-CMs (iCell Cardiomyocytes); experiment: DNA synthesis assay (48 h EdU incorporation)
Procedure: ICell Cardiomyocytes (Cellular Dynamics International) were seeded in 96-well or 384-well Corning CellBind plates at approximately 2.5×10^4 to 3.5×10^4 cells/cm^2. Cells were cultured for 2 days in iCell Cardiomyocytes Plating Medium (Cellular Dynamics International) supplemented with 1% Penicillin/Streptomycin (P/S; Gibco) followed by an additional 4 days in iCell Cardiomyocytes Maintenance Medium (Cellular Dynamics International) supplemented with 1% P/S. For all experiments, cells were first serum starved for 4 h and then treated in William's E medium without phenol red (Gibco) supplemented with Primary Hepatocyte Cell Maintenance Cocktail B (Gibco) containing P/S, ITS+, GlutaMAX, and HEPES. Cells were cultured for all experiments in a humidified environment at 37° C. with 5% CO2.
EdU incorporation and labeling with copper catalyzed click chemistry was used to measure DNA synthesis. Cells were treated in the presence of 1 μM EdU (Invitrogen) for 48 h, and subsequently fixed and permeabilized prior to incubation with the EdU click chemistry reaction mix—100 mM Tris HCL pH 7.0 (Gentrox), 4 mM CuSO4 (Sigma), 100 mM ascorbic acid (Sigma), and 5 μM Alexa Fluor 546 Azide (Click Chemistry Tools). After labelling EdU, cells were stained with anti-Cardiac Troponin T (Abcam) and DAPI (Sigma).
Custom image analysis and processing pipelines were developed and implemented in MATLAB to quantify the number of nuclei/cells, percent EdU positive objects, percent Ki67 positive objects, multinucleation, DNA content, cell cycle phases, and ploidy.
Classification—The binary segmented mask and background subtracted images were used to calculate the mean intensities of Hoechst 33342, DAPI, Cardiac-Troponin T, EdU, and Ki67 staining for each segmented object. […] Marker positivity thresholds were determined using Rosin's unimodal thresholding algorithm [63] on the mean intensity values for each segmented object.

[4] = tested on: hiPSC-CMs (iCell Cardiomyocytes); experiment: Multinucleation analysis after 6 days of treatment; assay type: cell-based, human; details: 10 μM inhibitor alone or with C3, compared to negative control or compound treatment alone
Procedure: Multinucleation Analysis—Multinucleated cells were identified based on the distance between neighboring nuclei. This distance threshold was determined using Cardiac-Troponin T staining to visualize cell borders. A morphological closing operation with a circular structuring element was applied to the binary segmented mask to merge and classify nuclei in multinucleated cells.

Compound: Cc1cccc(-c2n[nH]cc2-c2ccc3ncccc3n2)n1 [C3, RepSox]
- maximum-effect concentration ([1]; 5-point concentration response 0.1-10 μM, 6 days): 3.2 µM
- proliferation (change in the number of cells over 6 days) ([1]; compound alone at Emax concentration, 6 days): induces proliferation
- VEGFR2 (KDR) activation / expression (VEGFR2 (KDR)): induced
- endoreplication cycles [2]: without additional endoreplication cycles

Compound: COc1cccc(-c2cc(=O)c3ccccc3o2)c1N [PD98059]
- effect of inhibitor on C3 induced proliferation (increase in cell numbers) ([1]; 10 μM inhibitor in combination with 3.2 μM C3, day 6): only INK and PI3K inhibition attenuated
- effect of inhibitor alone on DNA synthesis (EdU incorporation) ([3]; 10 μM inhibitor alone, unstimulated hiPSC-CMs, 48 h): modest decreases
- effect of inhibitor on C3 induced DNA synthesis ([3]; 10 μM inhibitor in combination with 3.2 μM C3, 48 h): attenuated

Compound: CNC(=O)c1ccccc1Sc1ccc2c(/C=C/c3ccccn3)n[nH]c2c1 [axitinib]
- increase in multinucleation [4]: over 2 fold

Compound: C[C@]1(O)C[C@@H](c2nc(-c3ccc4ccc(-c5ccccc5)nc4c3)c3c(N)nccn32)C1 [linsitinib]
- effect of inhibitor on late-stage proliferation metrics ([1]; 0.1 μM inhibitor in combination with 3.2 μM C3, day 6): no effect
- effect of inhibitor on C3 induced DNA synthesis ([3]; 0.1 μM inhibitor in combination with 3.2 μM C3, 48 hrs): modest effect in reducing
